According to US5393761A, “3-arylindole compounds” (H. Lundbeck A/S, priority 1990, dated 1995):
Structures can show the parent of a compound that is named as a salt. Values belong to the molecule of their own block, whether it stands above or below them.

Assays:
[1] = biological target: T1, serotonin S2 (5-HT2) receptors in rat cortex (Rattus norvegicus, UniProt P14842); test: Inhibition of ^3H-ketanserin binding to serotonin S2 (5-HT2) receptors in rat cortex in vitro; settings: 0.5 nM ^3H-ketanserin, rat cortex membranes, 37° C., 30 min
T1 construct: Serotonin S2 (5-HT2) receptors in membranes from rat; from tissue; host or cells: cerebral cortex membranes of male Wistar rats (printed 'conical tissue', a misprint for cortical)
Protocol: Method in Hyttel, Pharmacology & Toxicology, 61, 126-129, 1987.
Male Wistar (Mol:Wist) rats (125-250 g) are sacrificed and conical tissue is dissected and weighed. The tissue is homogenized (Ultra Turrax, 10 sec.) in 10 ml of ice-cold 50 mM tris buffer pH 7.7 (at 25° C.). The centrifuge glassware used in this step has been rinsed by sonication for 10 min. in ethanol. The homogenate is centrifuged twice at 20,000 g for 10 min. at 4° C. with rehomogenization of the pellet in 10 ml ice-cold buffer. The final pellet is homogenized in 500 vol (w/v)ice-cold buffer.
Incubation tubes kept on ice in triplicate receive 100 μl Of drug solution in water (or water for total binding) and 2000 μl of tissue suspension (final tissue content corresponds to 4 mg original tissue). […] After incubation for 30 min. the samples are filtered under vacuum (0-50 mBar) through Whatman GF/F filters (25 mm). The tubes are rinsed with 5 ml ice-cold buffer which are then poured on the filters. Thereafter, the filters are washed with 2×5 ml of buffer. The filters are placed in counting vials and 4 ml of appropriate scintillation fluid (e.g. Picofluor ™15) are added. After shaking for 1 h and storage 2 hrs in the dark the content of radioactivity is determined by liquid scintillation counting. Specific binding is obtained by subtracting the nonspecific binding in the presence of 1 μM mianserin. For determination of the inhibition of binding five concentrations of drugs covering 3 decades are used.
The IC50 value is determined as the concentration at which the binding is 50% of the total binding in control samples minus the nonspecific binding in the presence of 1 μM mianserin.

[2] = biological target: dopamine D-2 receptors in rat corpus striatum (Rattus norvegicus, UniProt P61169); test: Inhibition of ^3H-spiperone (spiroperidol) binding to dopamine D-2 receptors in rat corpus striatum in vitro; settings: 0.5 nM ^3H-spiperone, rat striatum membranes, 37° C., 10 min
Protocol: By this method the inhibition by drugs of the binding of ^3 H-spiperone (=^3 H-spiroperidol) (0.5 nM) to dopamine D-2 receptors in membranes from rat corpus striatum is determined in vitro. Method and results in Hyttel & Larsen, J. Neurochem, 44, 1615-1622, 1985).
Male Wistar (Mol:Wistar) rats (125-250 g) are sacrificed and striatal tissue is dissected and weighed. The tissue is homogenized (Ultra Turrax, 10 sec.) in 10 ml of ice-cold 50 mM K-phosphate buffer pH 7.4 (at 25° C.). The homogenate is centrifuged twice at 20,000 g for 10 min. at 4° C. with rehomogenization of the pellet in 10 ml ice-cold buffer. The final pellet is homogenized in 1300 vol (w/v) ice-cold buffer.
Incubation tubes kept on ice in triplicate receive 100 μl of drug solution in water (or water for total binding) and 4000 μl Of tissue suspension (final tissue content corresponds to 3.08 mg original tissue). The binding experimental is initiated by addition of 100 μl of ^3 H-spiperone (final concentration 0.5 nM) and by placing the tubes in a 37° C. water bath. After incubation for 10 min. the samples are filtered under vacuum (0-50 mBar) through Whatman GF/F filters (25 mm). The tubes are rinsed with 5 ml ice-cold buffer which are then poured on the filters. Thereafter, the filters are washed with 2×5 ml of buffer. The filters are placed in counting vials and 4 ml of appropriate scintillation fluid (e.g. Picofluor ™15) are added. After shaking for 1 h and storage 2 hrs in the dark the content of radioactivity is determined by liquid scintillation counting. Specific binding is obtained by subtracting the nonspecific binding in the presence of 10 μM of 6,7-ADTN.
For determination of the inhibition of binding five concentrations of drugs covering 3 decades are used.
The measured cpm are plotted against drug concentration on semilogarithmic paper and the best fitting S-shaped curve is drawn. […] England, specific activity 15-25 Ci/mmol.

dopamine D-2 receptors in rat corpus striatum, sequence (P61169 whole entry): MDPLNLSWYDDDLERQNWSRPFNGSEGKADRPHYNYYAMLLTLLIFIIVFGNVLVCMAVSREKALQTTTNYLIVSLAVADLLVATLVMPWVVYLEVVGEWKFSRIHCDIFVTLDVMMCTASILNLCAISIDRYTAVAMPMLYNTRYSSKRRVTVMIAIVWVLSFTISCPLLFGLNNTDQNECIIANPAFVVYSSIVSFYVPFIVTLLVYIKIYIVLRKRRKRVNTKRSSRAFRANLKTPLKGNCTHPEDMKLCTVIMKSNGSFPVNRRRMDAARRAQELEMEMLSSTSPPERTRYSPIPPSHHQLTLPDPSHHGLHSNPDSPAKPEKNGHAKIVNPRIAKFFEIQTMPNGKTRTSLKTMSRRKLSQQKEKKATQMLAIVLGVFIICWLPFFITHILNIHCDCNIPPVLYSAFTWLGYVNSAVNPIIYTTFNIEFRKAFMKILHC
T1 sequence (P14842 whole entry): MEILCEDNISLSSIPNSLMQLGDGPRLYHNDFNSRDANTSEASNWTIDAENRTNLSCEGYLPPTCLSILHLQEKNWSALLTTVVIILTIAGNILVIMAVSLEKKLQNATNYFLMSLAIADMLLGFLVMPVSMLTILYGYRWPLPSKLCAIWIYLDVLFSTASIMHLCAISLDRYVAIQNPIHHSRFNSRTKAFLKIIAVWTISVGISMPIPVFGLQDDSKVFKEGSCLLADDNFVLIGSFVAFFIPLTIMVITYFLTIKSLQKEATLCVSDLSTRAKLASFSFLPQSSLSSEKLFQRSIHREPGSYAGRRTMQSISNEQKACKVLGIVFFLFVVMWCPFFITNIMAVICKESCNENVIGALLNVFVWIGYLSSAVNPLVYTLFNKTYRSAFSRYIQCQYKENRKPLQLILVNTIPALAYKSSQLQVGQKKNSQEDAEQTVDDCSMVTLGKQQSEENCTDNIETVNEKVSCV

SMILES: CN1CCN(CCN2CCC(n3cc(-c4ccc(F)cc4)c4ccc(Cl)cc43)CC2)C1=O [Compound 4a, 6-Chloro-3-(4-fluorophenyl)-1-[1-[2-(3-methylimidazolidin-2-on-1-yl)ethyl]-4-piperidyl)-1H-indole, maleate]
IC50 [1]: 1.5 nM
IC50 [2]: 46 nM

SMILES: O=C1NCCN1CCN1CCC(n2cc(-c3ccc(F)cc3)c3ccc(Cl)cc32)CC1 [Compound 4b, 6-Chloro-3-(4-fluorophenyl)-1-[1-[2-(imidazolidin-2-on-1-yl)ethyl]-4-piperidyl]-1H-indole]
IC50 [1]: 1.9 nM
IC50 [2]: 37 nM

SMILES: CC(C)N1CCN(CCN2CCC(n3cc(-c4ccc(F)cc4)c4ccc(Cl)cc43)CC2)C1=O [Compound 4c, 6-Chloro-3-(4-fluorophenyl)-1-[1-[2-[3-(2-propyl)imidazolidin-2-on-1-yl]ethyl]-4-piperidyl]-1H-indole, hydrochloride, hydrate]
IC50 [1]: 3.7 nM
IC50 [2]: 42 nM

SMILES: O=C1NCCN1CCN1CCC(n2cc(-c3ccc(F)cc3)c3cc(Cl)ccc32)CC1 [Compound 4d, 5-Chloro-3-(4-fluorophenyl)-1-[1-[2-(imidazolidin-2-on-1-yl)ethyl]-4-piperidyl]-1H-indole]
IC50 [1]: 5.7 nM
IC50 [2]: 410 nM

SMILES: CC(C)N1CCN(CCN2CCC(n3cc(-c4ccc(F)cc4)c4cc(Cl)ccc43)CC2)C1=O [Compound 4e]
IC50 [1]: 5.4 nM
IC50 [2]: 570 nM

SMILES: CN1CCN(CCN2CCC(n3cc(-c4ccc(F)cc4)c4cc(Cl)ccc43)CC2)C1=O [Compound 4f, 5-Chloro-3-(4-fluorophenyl)-1-[1-[2-(3-methylimidazolidin-2-on-1-yl)ethyl]-piperidyl]-1H-indole]
IC50 [1]: 1.4 nM
IC50 [2]: 550 nM

SMILES: Cc1ccc2c(c1)c(-c1ccc(F)cc1)cn2C1CCN(CCN2CCNC2=O)CC1 [Compound 4g, 3-(4-Fluorophenyl)-1-[1-[2-(imidazolidin-2-on-1-yl)ethyl]-4-piperidyl]-5-methyl-1H-indole]
IC50 [1]: 1.6 nM
IC50 [2]: 920 nM

SMILES: Cc1ccc2c(c1)c(-c1ccc(F)cc1)cn2C1CCN(CCN2CCN(C(C)C)C2=O)CC1 [Compound 4h, 3-(4-Fluorophenyl)-5-methyl-1-[1-[2-[3-(2-propyl)imidazolidin-2-on-1-yl]ethyl]-4-piperidyl)-1H-indole, oxalate]
IC50 [1]: 2.7 nM
IC50 [2]: 1100 nM

SMILES: Cc1ccc2c(c1)c(-c1ccc(F)cc1)cn2C1CCN(CCN2CCN(C)C2=O)CC1 [Compound 4i, 3-(4-Fluorophenyl)-5-methyl-1-[1-[2-(3-methylimidazolidin-2-on-1-yl)ethyl]-4-piperidyl]-1H-indole, fumarate]
IC50 [1]: 1.4 nM
IC50 [2]: 680 nM

SMILES: Cc1ccc2c(c1)c(-c1ccc(F)cc1)cn2C1CCN(CCN2CCCC2=O)CC1 [Compound 4j, 3-(4-Fluorophenyl)-5-methyl-1-[1-[2-(2-pyrrolidinon-1-yl)ethyl]-4-piperidyl]-1H-indole, oxalate]
IC50 [1]: 4.5 nM
IC50 [2]: 1200 nM

SMILES: O=C1NCCN1CCN1CCC(n2cc(-c3ccc(F)cc3)c3ccccc32)CC1 [Compound 4k, 3-(4-Fluorophenyl)-1-[1-[2-(imidazolidin-2-on-1-yl)ethyl]-4-piperidyl]-1H-indole]
IC50 [1]: 3.1 nM
IC50 [2]: 120 nM

SMILES: CC(C)N1CCN(CCN2CCC(n3cc(-c4ccc(F)cc4)c4ccccc43)CC2)C1=O [Compound 4l, 3-(4-Fluorophenyl)-1-[1-[2-[3-(2-propyl)imidazolidin-2-on-1-yl]ethyl]-4-piperidyl]-1H-indole, hydrochloride, hydrate]
IC50 [1]: 3.3 nM
IC50 [2]: 74 nM

SMILES: O=C1NCCN1CCN1CCC(n2cc(-c3ccc(F)cc3)c3cc(F)ccc32)CC1 [Compound 4m, 5-Fluoro-3-(4-fluorophenyl)-1-[1-[2-(imidazolidin-2-on-1-yl)ethyl]-4-piperidyl]-1H-indole]
IC50 [1]: 3.2 nM
IC50 [2]: 250 nM

SMILES: CC(C)N1CCN(CCN2CCC(n3cc(-c4ccc(F)cc4)c4cc(F)ccc43)CC2)C1=O [Compound 4n, 5-Fluoro-3-(4-fluorophenyl)-1-[1-[2-[3-(2-propyl)imidazolidin-2-on-1-yl]ethyl]-4-piperidyl]-1H-indole]
IC50 [1]: 3.1 nM
IC50 [2]: 190 nM

SMILES: O=C1OCCN1CCN1CCC(n2cc(-c3ccc(F)cc3)c3cc(F)ccc32)CC1 [Compound 4o, 5-Fluoro-3-(4-fluorophenyl)-1-[1-[2-(oxazolidin-2-on-3-yl)ethyl]-4-piperidyl]-1H-indole]
IC50 [1]: 37 nM
IC50 [2]: 790 nM

SMILES: O=C1NCCN1CCN1CCC(n2cc(-c3ccccc3)c3cc(Cl)ccc32)CC1 [Compound 4p, 5-Chloro-3-phenyl-1-[1-[2-(imidazolidin-2-on-1-yl)ethyl]-4-piperidyl]-1H-indole]
IC50 [1]: 29 nM
IC50 [2]: 2800 nM

SMILES: CC(C)N1CCN(CCN2CCC(n3cc(-c4ccccc4)c4cc(Cl)ccc43)CC2)C1=O [Compound 4q, 5-Chloro-3-phenyl-1-[1-[2-[3-(2-propyl)imidazolidin-2-on-1-yl]ethyl]-4-piperidyl)-1H-indole]
IC50 [1]: 25 nM
IC50 [2]: 3000 nM

SMILES: O=C1NCCN1CCN1CCC(N2CC(c3ccc(F)cc3)c3cc(F)ccc32)CC1 (centres unmarked) [Compound 4r, 2,3-Dihydro-3-(4-fluorophenyl)-1-[1-[2-(imidazolidin-2-on-1-yl)ethyl]-4-piperidyl]-5-fluoro-1H-indole]
IC50 [1]: 3.4 nM
IC50 [2]: 230 nM

SMILES: Cc1ccc2c(c1)c(-c1ccc(F)cc1)cn2C1CCN(C(C)C)CC1 [Compound 4s, 3-(4-Fluorophenyl)-5-methyl-1-[1-(2-propyl)-4-piperidyl]-lH-indole, maleate]
IC50 [1]: 12 nM
IC50 [2]: 330 nM

SMILES: O=C1NCCN1CCN1CCC(n2nc(-c3ccc(F)cc3)c3ccc(Cl)cc32)CC1 [Compound 4t, 6-Chloro-3-(4-fluorophenyl)-1-[1-[2-(imidazolidin-2-on-1-yl)ethyl]-4-piperidyl]-1H-indazole]
IC50 [1]: 38 nM
IC50 [2]: 1900 nM

IC50 [1]: 220 nM
IC50 [2]: 42000 nM
SMILES: O=C1NCCN1CCN1CCC(n2nc(-c3ccc(F)cc3)c3cc(C(F)(F)F)ccc32)CC1 [Compound 4u, 3-(4-Fluorophenyl)-1-[1-[2-(imidazolidin-2-on-1-yl)ethyl]-4-piperidyl]-5-trifluoromethyl-1H-indazole]

SMILES: CC(C)N1CCN(CCN2CCC(n3cc(-c4ccc(F)cc4)c4cc(C(F)(F)F)ccc43)CC2)C1=O [Compound 4v, 3-(4-Fluorophenyl)-1-[1-[2-[3-(2-propyl)imidazolidin-2-on-1-yl]ethyl]-4piperidyl]-5-trifluoromethyl-1H-indole]
IC50 [1]: 11 nM
IC50 [2]: > 1000 nM

SMILES: O=C1NCCN1CCN1CCC(n2c(Br)c(-c3ccc(F)cc3)c3ccccc32)CC1 [Compound 4x, 2-Bromo-3-(4-fluorophenyl)-1-[1-[2-(imidazolidin-2-on-1-yl)ethyl]-4-piperidyl]-1H-indole]
IC50 [1]: 11 nM
IC50 [2]: 650 nM

SMILES: Cc1ccc2c(c1)c(-c1ccc(F)cc1)c(C)n2C1=CCN(CCN2CCNC2=O)CC1 [Compound 6a, 2,5-Dimethyl-3-(4-fluorophenyl)-1-[1-[2-(imidazolidin-2-on-1-yl)ethyl]-1,2,3,6-tetrahydropyridin-4-yl]-1H-indole]
IC50 [1]: 2.8 nM
IC50 [2]: 6300 nM

SMILES: Cc1ccc2c(c1)c(-c1ccc(F)cc1)c(C)n2C1=CCN(C)CC1 [Compound 6b, 2,5-Dimethyl-3-(4-fluorophenyl)-1-(1-methyl-1,2,3,6-tetrahydropyridin-4-yl)-1H-indole]
IC50 [1]: 3.8 nM
IC50 [2]: 710 nM
